Counter-ions that a name gives are not always drawn.
What was measured:
[1] = Cytotoxicity by MTT reduction reported with the IL-1 assay (Table I); format: cell-based; conditions: mouse, thymocytes, cytotoxic when toxicity greater than 25%
Protocol: Potential cytotoxicity of the test samples was assessed by the measurement of their effect on the reduction of MTT (3-[4,5-Dimethylthiazole-2-yl]-2,5-diphenyltetrazolium bromide) by cultured cells. MTT, a yellow-colored compound, is reduced by mitochondrial enzymes to form the purple crystalline reduction product formazane, providing an index of cellular respiration on viable cells as well as a sensitive assay for cytotoxicity (Mossmann, 1983).
The cytotoxicity was assessed in cultured human PBMC and mouse thymocytes. A stock solution of MTT (Sigma) at 5 mg/ml in phosphate buffered saline, pH 7.4, was prepared and stored in the dark at 4° C. PBMCs or thymocytes were cultured with various concentrations of test samples in flatbottom 96-well tissue culture plates (Costar) under the same conditions as those described above, but the stimulants (X-35 or IL-1+PHA) were replaced by appropriate medium. Untreated cells with medium alone and without the test samples were used as controls. After incubation for 21 hours, 25 μl of MTT solution was added to each well. After an additional three hours of incubation, the experiment was terminated by addition of a solution of 10% sodium dodecyl sulfate in 0.01 N HCl. Following overnight incubation at 37° C. to solubilize the formazane crystals, optical density was determined at 570-650 nm in microplate reader. […]

[2] = Stability in blood serum by TLC; format: in vitro ADME; conditions: rat serum, 37° C
Protocol: The stability of triptolide succinate in blood serum was determined as detailed in Example 10B. In this study, a solution of triptolide succinate (YM-262, free acid) in DMSO was mixed with rat serum and incubated at 37° C. The mixture was assayed periodically by thin layer chromatography (TLC) to follow the hydrolysis of the triptolide succinate over time.
A solution of triptolide succinate (free acid; YM-262) in DMSO was made at a concentration of 25 mg/ml, and 0.1 ml of this solution was mixed with 0.5 ml of rat serum. The mixture was incubated at 37° C. Aliquots of the mixture were taken at 1, 3, 5, 15, 45 minutes and 18 hours and analyzed by thin layer chromatography (TLC). The TLC plates were developed in 1:5 CH2 Cl2 /Et2 O. After development, the plates were treated with iodine vapor and examined under a UV lamp. Triptolide and triptolide succinate were used as reference compounds (Rf =0.60 and 0.45, respectively).

[3] = tested on: male fertility; assay: Effect on fertility in male mice; format: in vivo, mouse (BDF1); conditions: for delay of time from cohabitation to birth / increase in time from cohabitation to birth: vs control
[4] = tested on: heart transplant rejection; assay: Cardiac allograft survival (heterotopic heart transplantation in rats); format: in vivo, rat (Brown Norway donors, Lewis recipients); conditions: for mean survival time of allograft / mean survival time compared with underivatized triptolide: i.p.; for mean survival time of allograft: day -1 to 14; for mean survival time compared with underivatized triptolide: equimolar doses (YM-273 0.40, YM-274 0.33, T10 0.25 mg/kg)
Description: Treatment of transplantation rejection, in accordance with the invention, is illustrated for rejection of an allograft by the in vivo heart transplantation model used in Example 14. The method involves a well-characterized rat model system (Ono and Lindsey, 1969) in which a transplanted heart is attached to the abdominal great vessels of an allogeneic recipient animal, and the viability of the transplanted heart is gauged by the heart's ability to beat in the recipient animal.
In one study, the animals were administered by intraperitoneal injections, from one day preceding to 14 days following heart transplantation, either control solution (5% ethanol, 10 ml/kg), triptolide (designated as T10), or with two concentrations each of YM-273 and YM-274. There were three animals in each group, except for the control group in which five animals were used.
Heterotopic whole heart transplantation was performed according to the standard method (Ono and Lindsey, 1969). The donors (Brown Norway rats, 200-255 g, Charles River, Wilmington, Mass.) and recipients (Adult male Lewis rats, 225-275g, Charles River) were anesthetized with sodium pentobarbital (40 mg/kg). Following adequate donor anticoagulation using heparin, the heart graft was removed and stored at 4° C. in PhysioSol Irrigation Solution (Abbott Laboratories, N. Chicago, Ill.). The ascending aorta and pulmonary artery were transected, and the vena cava and pulmonary veins were ligated. […] The cold ischemic time of all the cardiac grafts was less than 45 minutes. Graft heartbeat was monitored by abdominal palpation. The period of functional graft survival was measured as the number of days during which cardiac graft contractions could be detected by abdominal palpation. Results were confirmed by direct visualization at laparotomy.
Heart transplant recipient animals prepared as described above (3-5 animals/group) were treated with (i) control solution (5% ethanol, 10 ml/kg), (ii) YM-273 at 0.10 mg/kg and 0.40 mg/kg (FIG. 5A), (iii) YM-274 at 0.084 and 0.33 mg/kg (FIG. 5B), and (iv) and T10 (triptolide) 0.25 mg/kg (FIG. 6). In addition to showing the results for T10, FIG. 6 repeats the results from FIGS. 5A-5B for YM-273 and YM-274 at 0.40 and 0.33 mg/kg, respectively, such that their concentrations were equimolar relative to T10. All compounds were administered intraperitoneally. Treatment started on the day prior to surgery and continuing daily until postoperative day 14, or until the end of allograft survival.

[5] = 0.03 mg/kg/day (so in the source) i.p.
[6] = 0.1 mg/kg/day (so in the source) i.p.

SMILES: CC(C)C12OC1C1OC13C1(C)CCC4=C(COC4=O)C1CC1OC13C2OC(=O)CCC(=O)O (stereo not shown) [YM-262, Triptolide Succinate]
- CC50 at 24 h [1]: > 12.5 µg/mL
- time for hydrolysis in blood serum to triptolide [2]: ≤ 15 min
- time for hydrolysis in serum to release free triptolide [2]: less than an hour
- stability in blood serum, 3 minutes ([2]; 3 minutes, TLC): only triptolide succinate was detected by TLC
- stability in blood serum, 15 minutes ([2]; 15 minutes, TLC): the triptolide succinate spot was gone
- stability in blood serum, 3 to 5 minutes ([2]; first 3 to 5 minutes, TLC): most of the triptolide succinate remained
- time from beginning of cohabitation to birth of litters [3, 5]: 28 days
- delay of time from cohabitation to birth [3, 5]: 17%
- period of unproductive mating ([3]; 0.04 mg/kg/day i.p.): approximately four-day period of unproductive mating
- time from beginning of cohabitation to birth of litters ([3]; 0.04 mg/kg/day i.p.): 28 days
- delay of time from cohabitation to birth ([3]; 0.04 mg/kg/day i.p.): 17%
- time from cohabitation to birth [3, 6]: 45 days
- delay of recovery of fertility after termination of therapy ([3]; 0.1 mg/kg/day (so in the source) i.p. over 32 days): 21 days
- increase in time from cohabitation to birth [3, 6]: 88%
- time from cohabitation to birth ([3]; 0.13 mg/kg/day i.p.): 45 days
- increase in time from cohabitation to birth ([3]; 0.13 mg/kg/day i.p.): 88%

SMILES: CC(C)C12OC1C1OC13C1(C)CCC4=C(COC4=O)C1CC1OC13C2OC(=O)CCC(=O)O (stereo not shown) [YM-273, Triptolide Succinate Tris Salt]
- mean survival time of allograft ([4]; YM-273, 0.1 mg/kg): 7 days
- mean survival time compared with control ([4]; YM-273, 0.4 mg/kg i.p.): substantial improvement over the control
- mean survival time of allograft ([4]; YM-273, 0.4 mg/kg): 24 days
- mean survival time compared with underivatized triptolide [4]: somewhat better than that seen with underivatized triptolide

SMILES: CC(C)C12OC1C1OC13C1(C)CCC4=C(COC4=O)C1CC1OC13C2OC(=O)CCC(=O)O (stereo not shown) [YM-274, Triptolide Succinate Sodium Salt]
- mean survival time of allograft ([4]; YM-274, 0.0837 mg/kg): 10 days
- mean survival time compared with underivatized triptolide ([4]; Succinate Sodium Salt): substantially better

SMILES: CC(C)[C@]12O[C@H]1[C@@H]1O[C@]13[C@]1(O[C@H]1C[C@H]1C4=C(CC[C@@]13C)C(=O)OC4)[C@@H]2O [Triptolide, triptolide, reference compound]
- CC50 at 24 h [1]: > 12.5 µg/mL
- triptolide formed from triptolide succinate in serum, 15 minutes ([2]; 15 minutes after addition of YM-262, TLC): a new spot corresponding to triptolide had appeared
- triptolide formed from triptolide succinate in serum, 45 minutes ([2]; 45 minutes after addition of YM-262, TLC): the triptolide spot had also disappeared

Reference: US5962516A, “Immunosuppressive compounds and methods” (priority 1999, dated 1999)
